Data on 2 molecules can be found in PubChem BioAssay (NCI).

“And” between values parts separate entries of the source, which are not always exact repeats. Equal entries are not always repeated.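 Growth conditions: 96-well plates. Treatment: test compound, 48 hours, 5 concentrations. Analysis: linear interpolation between bracketing concentrations; unreached endpoints set to highest concentration. GI50: concentration for 50% inhibition of growth. The concentration for full growth arrest is given as TGI.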 Bounds are passed on as bounds.

Common to all, as to assay: DTP human tumour cell line panel, 48 h
Experiment [1] concerns OVCAR-5 ovarian.
The test system of experiment [2] is SNB-75 CNS.
Experiment [3] has as its system SK-MEL-5 melanoma.
Experiment [4] deals with A498 renal.
Experiment [5] deals with CCRF-CEM leukemia.
The subject of experiment [6] is NCI/ADR-RES ovarian.
In experiment [7] the test system is OVCAR-3 ovarian.
Experiment [8] relates to 786-0 renal.
The test system of experiment [9] is SK-MEL-2 melanoma.
Experiment [10] relates to NCI-H460 lung.

Take `CC(=O)OCC1OC(n2c(-c3ccc(Cl)cc3)ccc(C#N)c2=S)C(OC(C)=O)C(OC(C)=O)C1OC(C)=O` (stereo unspecified): the TGI was greater than 100 µM in experiment [1]; 14 µM and 82.9 µM in [2]; greater than 100 µM in experiment [3]; 56.1 µM and > 100 µM in experiment [4]; greater than 100 µM in experiment [5]; greater than 100 µM in [6]. In addition, the TGI is greater than 100 µM in experiment [7]; 55.8 µM and 72.9 µM in [8]; 45.6 µM and > 100 µM in experiment [9]; greater than 100 µM in [10]. The GI50 was 5.05 µM and 26.9 µM in experiment [2]; > 66.1 µM and 32.2 µM in experiment [3]; 24.9 µM and 73.8 µM in experiment [4]; 98.7 µM and 48.1 µM in experiment [7]; 11.1 µM and 26.2 µM in experiment [8]; 16 µM and 87 µM in experiment [9].

For the molecule `O=S(=O)(Nc1ccccc1Cl)c1ccc(-c2cnc(C3CC3)o2)cc1`, the GI50 is 2.44 µM in experiment [1]; 0.139 µM in [2]; 0.453 µM in experiment [3]; 0.0873 µM in [4]; 0.388 µM in experiment [5]; 0.314 µM in experiment [6]. Moreover, the 50% growth inhibitory concentration (GI50) in experiment [7] is 0.303 µM; in [8] it was 0.809 µM; in experiment [9], 0.64 µM; in [10], 0.397 µM. Also, the TGI was greater than 100 µM in experiment [1]; 0.599 µM in [2]; 15.9 µM in [3]; 0.608 µM in experiment [4]; greater than 100 µM in experiment [5]; 65.9 µM in experiment [6]. Also, the TGI was 15.7 µM in experiment [7], greater than 85.1 µM in experiment [8], greater than 100 µM in experiment [9] and 15.6 µM in experiment [10].
